In general, TGI refers to the concentration at which net growth stops.

Some test systems named below: HOP-62 NSCLC; UACC-257 melanoma; T-47D breast; HCT-15 colon; HT29 colon; TK-10 renal; OVCAR-3 ovarian; SNB-19 CNS; MOLT-4 leukemia; COLO 205 colon; OVCAR-8 ovarian; RXF 393 renal.
Holding throughout (test): DTP human tumour cell line panel, 48 h

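A five-concentration, 48-hour dose response in 96-well plates underlies each endpoint, interpolated linearly between surrounding concentrations. TGI is the concentration that stops growth completely.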 Bounds are passed on as bounds.

As to `CN(C(=O)OC(C)(C)C)[C@H]1CCCC[C@H]1N1CCCC1`, the TGI in the assay with HOP-62 NSCLC, with UACC-257 melanoma, in the assay on T-47D breast, in the assay on HCT-15 colon, with HT29 colon and in the assay with TK-10 renal was more than 100 µM in each case. In addition, the TGI in the assay on OVCAR-3 ovarian, with SNB-19 CNS, in the assay on MOLT-4 leukemia, with COLO 205 colon and in the assay with OVCAR-8 ovarian was more than 100 µM in each case.

`CC(=O)c1ccc(-c2oc(-c3ccccc3)cc2-c2ccc3c(c2)OCO3)s1`: the total growth inhibition concentration (TGI) in the assay on HOP-62 NSCLC, with UACC-257 melanoma, in the assay with T-47D breast, with RXF 393 renal, with HT29 colon and in the assay with TK-10 renal was more than 100 µM each time. The TGI with OVCAR-3 ovarian, in the assay with MOLT-4 leukemia, with COLO 205 colon and in the assay on OVCAR-8 ovarian was more than 100 µM in each case.

With `c1ccc(COCC23CCN(Cc4ccccc4)C(CC(OCc4ccccc4)C2)S3)cc1` (stereo not drawn), the TGI in the assay with HOP-62 NSCLC, in the assay with UACC-257 melanoma, in the assay with T-47D breast, with RXF 393 renal, in the assay with HCT-15 colon and in the assay with HT29 colon was more than 100 µM in each case. Further, the TGI in the assay with OVCAR-3 ovarian was more than 100 µM; in the assay on SNB-19 CNS it was more than 100 µM; in the assay with MOLT-4 leukemia it was 69.9 µM; in the assay on COLO 205 colon it was more than 100 µM; in the assay on OVCAR-8 ovarian, more than 100 µM.

As to `CC(=O)O[C@H]1C(=O)[C@@]2(C)C(C(OC(=O)c3ccccc3)[C@]3(O)CC(OC(=O)C(O)C(NC(=O)c4ccccc4)c4ccc(F)cc4)C(C)=C1C3(C)C)[C@]1(OC(C)=O)CO[C@@H]1C[C@@H]2O` (stereo partly drawn), the TGI with HOP-62 NSCLC was more than 10 µM; with UACC-257 melanoma it was more than 10 µM; in the assay with T-47D breast, more than 10 µM; with RXF 393 renal it was 0.0187 µM; in the assay with HCT-15 colon it was more than 10 µM; in the assay with HT29 colon, more than 3.4 µM. For the same compound, the concentration for total growth inhibition (TGI) in the assay on TK-10 renal is more than 10 µM; in the assay on SNB-19 CNS, more than 10 µM; in the assay with MOLT-4 leukemia it was 2.73 µM; in the assay on COLO 205 colon, 0.0755 µM; with OVCAR-8 ovarian it was more than 10 µM.

In the case of `COC(=O)c1cc(NC2OCC(OC(C)=O)C(OC(C)=O)C2OC(C)=O)nc(SC)c1C(=O)OC` (stereo not drawn), the TGI with HOP-62 NSCLC, in the assay on UACC-257 melanoma, with T-47D breast, in the assay on HCT-15 colon, in the assay on HT29 colon and in the assay on TK-10 renal was more than 100 µM throughout. Further, the TGI with OVCAR-3 ovarian, in the assay with SNB-19 CNS, in the assay with MOLT-4 leukemia, with COLO 205 colon and with OVCAR-8 ovarian was more than 100 µM in each case.

`CCOC(=O)C(NNS(=O)(=O)c1ccc(C)cc1)S(=O)(=O)C(F)(F)C(F)(F)C(F)(F)C(F)(F)F` (stereo not drawn): the TGI in the assay with HOP-62 NSCLC, with UACC-257 melanoma, in the assay with T-47D breast, with HCT-15 colon, in the assay with HT29 colon and in the assay with TK-10 renal was more than 100 µM in each case. For the same compound, the TGI with OVCAR-3 ovarian, in the assay on SNB-19 CNS, with MOLT-4 leukemia, with COLO 205 colon and in the assay with OVCAR-8 ovarian was more than 100 µM in each case.

Take `CO/C(=N/N1CC1C(F)(F)F)c1ccncc1` (stereo not drawn): the TGI in the assay with HOP-62 NSCLC, in the assay on T-47D breast, with RXF 393 renal, in the assay with HCT-15 colon, with HT29 colon and in the assay on OVCAR-3 ovarian was more than 100 µM in each case. In addition, the TGI in the assay on SNB-19 CNS, with MOLT-4 leukemia, in the assay with COLO 205 colon and with OVCAR-8 ovarian was more than 100 µM in each case.

Take `COc1ccc(C2Oc3c(cccc3OC)C=C2[N+](=O)[O-])cc1OC` (stereo not drawn): the TGI with HOP-62 NSCLC was more than 100 µM; with T-47D breast, more than 100 µM; in the assay with RXF 393 renal it was 8.76 µM; in the assay on HCT-15 colon it was 24 µM; with HT29 colon, more than 100 µM; with TK-10 renal, 81.8 µM. For the same compound, the TGI is 67.9 µM with OVCAR-3 ovarian, more than 100 µM in the assay with SNB-19 CNS, more than 100 µM in the assay on MOLT-4 leukemia and 73.7 µM in the assay with COLO 205 colon.

Turning to `NC(=O)/N=C(\N)NC(=O)c1ccccc1`, the TGI in the assay with HOP-62 NSCLC, in the assay on UACC-257 melanoma, in the assay with T-47D breast, in the assay with RXF 393 renal, in the assay on HCT-15 colon and with HT29 colon was more than 100 µM in each case. Moreover, the TGI in the assay on TK-10 renal, in the assay on OVCAR-3 ovarian, in the assay on SNB-19 CNS, in the assay with MOLT-4 leukemia and with OVCAR-8 ovarian was more than 100 µM throughout.

Regarding `Cc1nnc(Nc2ccc(Cl)cc2)o1`, the TGI in the assay on HOP-62 NSCLC, in the assay with UACC-257 melanoma, in the assay with T-47D breast, in the assay on RXF 393 renal, in the assay on HCT-15 colon and in the assay with HT29 colon was more than 10 µM in each case. Further, the TGI in the assay with TK-10 renal, in the assay on OVCAR-3 ovarian, in the assay on SNB-19 CNS, in the assay with COLO 205 colon and with OVCAR-8 ovarian was more than 10 µM in each case.

As to `CC(C)[Si](OC12CCC(CC1O)CC2C(=O)O)(C(C)C)C(C)C` (stereo not drawn), the TGI was found to be 27.5 µM with HOP-62 NSCLC; 36.5 µM in the assay on UACC-257 melanoma; 37.5 µM with T-47D breast; 24.8 µM with HCT-15 colon; 26.8 µM with HT29 colon; 17.1 µM with TK-10 renal. The TGI in the assay on OVCAR-3 ovarian is 28 µM; with SNB-19 CNS it was 29.1 µM; with MOLT-4 leukemia, more than 100 µM; in the assay with COLO 205 colon it was 59.2 µM; with OVCAR-8 ovarian it was 42.4 µM.

Turning to `CCCCCCCC1c2cc3[nH]c(cc4nc(cc5[nH]c(cc(n2)[C@@]1(C)CC(=O)N(C)C)c(C)c5CCC(=O)O)C(CCC(=O)O)=C4C)cc3C` (stereo partly drawn), the TGI was 35.4 µM with HOP-62 NSCLC; 35.2 µM with UACC-257 melanoma; more than 100 µM in the assay on T-47D breast; 33.9 µM with RXF 393 renal; 39.5 µM in the assay on HCT-15 colon; 39.8 µM with HT29 colon. In addition, the concentration for total growth inhibition (TGI) in the assay with TK-10 renal was 79.3 µM; in the assay on OVCAR-3 ovarian, 37.1 µM; in the assay with SNB-19 CNS, 36.9 µM; with COLO 205 colon, 32.2 µM.

The values are drawn from PubChem BioAssay (NCI).
